These results are taken from patent US11993610B2, “BCL-2 inhibitors” (Newave Pharmaceutical Inc., priority 2017, dated 2024).

The test system of data set [1] is BCL-2-dependent acute lymphoblastic leukemia RS4; 11 xenograft model. Nature of the data set: In vivo RS4; 11 xenograft study. Further details: species or system CB.17 SCID mice. As to conditions: for BW Nadir / Tumor volume: po. From the text:
The CB.17 SCID mice were obtained at age 6-8 weeks from vendors and acclimated for a minimum 7-day period. The cancer cells were then implanted into the […] mice. Depending on the specific tumor type, tumors were typically detectable about two weeks following implantation. When tumor sizes reached ˜100-200 mm^3, the animals with appreciable tumor size and shape were randomly assigned into groups of 8 mice each, including one vehicle control group and treatment groups. Dosing varies depending on the purpose and length of each study, which typically proceeded for about 3-4 weeks. Tumor sizes and body weight were typically measured three times per week. In addition to the determination of tumor size changes, the last tumor measurement was used to generate the tumor size change ratio (T/C value), a standard metric developed by the National Cancer Institute for xenograft tumor evaluation. In most cases, % T/C values were calculated using the following formula: % T/C=100×ΔT/ΔC if ΔT>0. When tumor regression occurred (ΔT<0), however, the following formula was used: % T/T0=100×ΔT/T0.

Data set [2] concerns RS4; 11. Nature of the data set: In vitro anti-proliferation assay (ATPlite) in BCL-2-dependent ALL cell line RS4; 11. The data set is classed as cell-based. The protocol: Cell antiproliferation was assayed by PerkinElmer ATPlite™ Luminescence Assay System. Briefly, the various test cancer cell lines were plated at a density of about 1×10^4 cells per well in Costar 96-well plates, and were incubated with different concentrations of compounds for about 72 hours in medium supplemented with 5% FBS or 10% normal human serum (NHS). One lyophilized substrate solution vial was then reconstituted by adding 5 mL of substrate buffer solution, and was agitated gently until the solution is homogeneous. About 50 μL of mammalian cell lysis solution was added to 100 μL of cell suspension per well of a microplate, and the plate was shaken for about five minutes in an orbital shaker at ˜700 rpm. This procedure was used to lyse the cells and to stabilize the ATP. Next, 50 μL substrate solution was added to the wells and microplate was shaken for five minutes in an orbital shaker at ˜700 rpm. Finally, the luminescence was measured by a PerkinElmer TopCount® Microplate Scintillation Counter. Such assays, carried out with a range of doses of test compounds, allowed the determination of the cellular anti-antiproliferative IC50 of the compounds of the present invention.
(ATP-based viability assays read luminescence as a measure of living cells.)

Data set [3] has as its system xenograft models of small-cell lung cancer and acute lymphoblastic leukemia. The settings on record: oral administration, alone; cited from earlier work.
Data set [4] concerns H345 xenograft model. The settings on record: 100 mg/kg/day; cited from earlier work.
Data set [5] has as its system circulating platelets. The settings on record: clinical trial; cited from earlier work.
The conditions of data set [6]: cited from earlier work.
Data set [7] can be described thus: Mice PK study. The data set is classed as in vivo. As to conditions: po, 10 mg/kg, CD-1 mouse; for AUC / half-life / bioavailability: plasma; for half-life: read-out: t½ (converted); for bioavailability: read-out: Bioavailabilty. As to the method:
The pharmacokinetics of compounds were evaluated in CD-1 mouse via Intravenous and Oral Administration. The IV dose was administered as a slow bolus in the Jugular vein, and oral doses were administered by gavage. The formulation for IV dosing is 5% DMSO in 20% HPBCD in water, and the PO formulation is 2.5% DMSO, 10% EtOH, 20% Cremphor EL, 67.5% D5W. The PK time point for the IV arm was 5, 15, 30 min, 1, 2, 4, 6, 8, 12, 24 hours post dose, and for PO arm was 15, 30 min, 1, 2, 4, 6, 8, 12, 24 hours post dose. Approximately 0.03 mL blood was collected at each time point. Blood of each sample was transferred into plastic micro centrifuge tubes containing EDTA-K2 and plasma was collected within 15 min by centrifugation at 4000 g for 5 minutes in a 4′C centrifuge. Plasma samples were stored in polypropylene tubes. The samples were stored in a freezer at −75±15° C. prior to analysis. Concentrations of compounds in the plasma samples were analyzed using a LC-MS/MS method. WinNonlin (Phoenix™, version 6.1) or other similar software was used for pharmacokinetic calculations. The following pharmacokinetic parameters were calculated, whenever possible from the plasma concentration versus time data: IV administration: C0, CL, Vd, T1/2, AUCinf, AUClast, MRT, Number of Points for Regression; PO administration: Cmax, Tmax, T1/2, AUCinf, AUClast, F %, Number of Points for Regression. The pharmacokinetic data was described using descriptive statistics such as mean, standard deviation. Additional pharmacokinetic or statistical analysis was performed at the discretion of the contributing scientist, and was documented in the data summary.

The mark [8] stands for this setting: Homo sapiens, RS4-11, 72 h, read-out: IC50, RS4, 11 5% FBS, about 72 hours, first study.
The mark [9] stands for this setting: Homo sapiens, RS4-11, 72 h, read-out: IC50, RS4, 11 5% FBS, about 72 hours, another study.

Like-named read-outs stand apart in the source and are kept apart here.

As to `CC1(C)CCC(CN2CCN(c3ccc(C(=O)NS(=O)(=O)c4ccc(NCC5CCOCC5)c([N+](=O)[O-])c4)c(Oc4cnc5[nH]ccc5c4)c3)CC2)=C(c2ccc(Cl)cc2)C1` [ABT-199, reference compound], in data set [1] (50 mg/kg, qd × 7), the “BW Nadir” value is −3.60% and the Tumor volume worked out at 0 mm^3. This molecule showed a Tumor volume in data set [1] (50 mg/kg, qd × 21) of 17.4 mm^3. Besides, in data set [2] (setting [8]), the IC50 (commonly the midpoint of a concentration-inhibition curve) is 5.5 nM.
On to `CC1(C)CCC(c2ccc(Cl)cc2)=C(CN2CCN(c3ccc(C(=O)NS(=O)(=O)c4ccc(N[C@H](CCN5CCOCC5)CSc5ccccc5)c(S(=O)(=O)C(F)(F)F)c4)cc3)CC2)C1` [ABT-263], for which, in data set [3], the tumor regressions result was “complete tumor regressions”. Besides, in data set [4], the TGI (commonly the reduction of tumour growth relative to the control group) is recorded as 80% and the “treated tumors indicating at least a 50% reduction in tumor volume” value is 20%. Further, the “number of circulating platelets” value in data set [5] is given as “rapid, concentration-dependent decrease in the number of circulating platelets”.
`CN(C)CC[C@H](CSc1ccccc1)Nc1ccc(S(=O)(=O)NC(=O)c2ccc(N3CCN(Cc4ccccc4-c4ccc(Cl)cc4)CC3)cc2)cc1[N+](=O)[O-]` [ABT-737]: the aqueous solubility result in data set [6] is reported as “low”.
`CC1(C)CCC(CN2CCN(c3ccc(C(=O)NS(=O)(=O)c4ccc(NCC5CCOCC5)c([N+](=O)[O-])c4)c(N4CCOc5nc6[nH]ccc6cc54)c3)CC2)=C(c2ccc(Cl)cc2)C1` [Example 2 (NW-4-8), 4-(4-[[2-(4-chlorophenyl)-4,4-dimethylcyclohex-1-en-1-yl]methyl]piperazin-1-yl)-N-([3-nitro-4-[(oxan-4-ylmethyl)amino]benzene]sulfonyl)-2-[13-oxa-2,4,10-triazatricyclo[7.4.0.0^[3,7]]trideca-1,3(7),5,8-tetraen-10-yl]benzamide]: in data set [2] (read-out: IC50, RS4, 11 5% FBS, about 72 hours, first study), the IC50 is 4.8 nM. For the same molecule, in data set [7], the “AUC(h * ng/mL)” value is reported as 10,365 h * ng/mL; the Bioavailabilty is 68%; the t½ (in general, the time in which the quantity being followed falls by half) was determined as 2.7 h.
Take `CC1(C)CCC(CN2CCN(c3ccc(C(=O)NS(=O)(=O)c4ccc(NCC5(F)CCOCC5)c([N+](=O)[O-])c4)c(N4CCOc5nc6[nH]ccc6cc54)c3)CC2)=C(c2ccc(Cl)cc2)C1` [Example 3, 4-(4-((4′-chloro-5,5-dimethyl-3,4,5,6-tetrahydro-[1,1′-biphenyl]-2-yl)methyl)piperazin-1-yl)-2-(2,3-dihydropyrrolo[3′,2′:5,6]pyrido[2,3-b][1,4]oxazin-1(6H)-yl)-N-((4-(((4-fluorotetrahydro-2H-pyran-4-yl)methyl)amino)-3-nitrophenyl)sulfonyl)benzamide]: the “BW Nadir” value in data set [1] (25 mg/kg, qd × 7) was −3.60%; in data set [1] (50 mg/kg, qd × 7), −2.90%; in data set [1] (100 mg/kg, qd × 7), −2.10%. The Tumor volume in data set [1] (25 mg/kg, qd × 7) was found to be 368 mm^3; in data set [1] (50 mg/kg, qd × 7), 26 mm^3; in data set [1] (100 mg/kg, qd × 7) it was 0 mm^3. Moreover, the tumor regression result in data set [1] (100 mg/kg, day 18) is listed as “complete regression of the tumor”. Besides, the “effect on tumor growth” value in data set [1] (7 doses (qd × 7), 25-100 mg/kg po) is on record as “dose-dependent reduction of tumor growth”. The results for the IC50 in data set [2] (setting [9]) and in data set [2] (setting [8]) were 1.4 nM and 2.6 nM, respectively.
For `C[C@@H]1CN(c2cc(N3CCN(CC4=C(c5ccc(Cl)cc5)CC(C)(C)CC4)CC3)ccc2C(=O)NS(=O)(=O)c2ccc(NCC3(F)CCOCC3)c([N+](=O)[O-])c2)c2cc3cc[nH]c3nc2O1` [Example 6 (R), (R)-4-(4-((4′-chloro-5,5-dimethyl-3,4,5,6-tetrahydro-[1,1′-biphenyl]-2-yl)methyl)piperazin-1-yl)-N-((4-(((4-fluorotetrahydro-2H-pyran-4-yl)methyl)amino)-3-nitrophenyl)sulfonyl)-2-(3-methyl-2,3-dihydropyrrolo[3′,2′:5,6]pyrido[2,3-b][1,4]oxazin-1(6H)-yl)benzamide], the IC50 in data set [2] (setting [9]) was determined as 1.3 nM. In data set [7], the exposure (AUC) (as a rule, concentration integrated over time) worked out at 16100 ng·h/mL and the half-life is 3.2 h.
As to `C[C@H]1CN(c2cc(N3CCN(CC4=C(c5ccc(Cl)cc5)CC(C)(C)CC4)CC3)ccc2C(=O)NS(=O)(=O)c2ccc(NCC3(F)CCOCC3)c([N+](=O)[O-])c2)c2cc3cc[nH]c3nc2O1` [Example 6 (S), (S)-4-(4-((4′-chloro-5,5-dimethyl-3,4,5,6-tetrahydro-[1,1′-biphenyl]-2-yl)methyl)piperazin-1-yl)-N-((4-(((4-fluorotetrahydro-2H-pyran-4-yl)methyl)amino)-3-nitrophenyl)sulfonyl)-2-(3-methyl-2,3-dihydropyrrolo[3′,2′:5,6]pyrido[2,3-b][1,4]oxazin-1(6H)-yl)benzamide], the IC50 in data set [2] (setting [9]) amounted to 3.2 nM. In data set [7], the AUC amounted to 12100 ng·h/mL and the bioavailability came to 74%.
`CC1(C)CCC(CN2CCN(c3ccc(C(=O)NS(=O)(=O)c4ccc(NCC5(F)CCOCC5)c([N+](=O)[O-])c4)c(N4CC(C)(C)Oc5nc6[nH]ccc6cc54)c3)CC2)=C(c2ccc(Cl)cc2)C1` [Example 7, 4-(4-((4′-chloro-5,5-dimethyl-3,4,5,6-tetrahydro-[1,1′-biphenyl]-2-yl)methyl)piperazin-1-yl)-2-(3,3-dimethyl-2,3-dihydropyrrolo[3′,2′:5,6]pyrido[2,3-b][1,4]oxazin-1(6H)-yl)-N-((4-(((4-fluorotetrahydro-2H-pyran-4-yl)methyl)amino)-3-nitrophenyl)sulfonyl)benzamide]: the IC50 in data set [2] (setting [9]) worked out at 5.6 nM. Moreover, in data set [7], the AUC was 11000 ng·h/mL, the bioavailability came to 90% and the half-life is 3.2 h.
`C[C@H]1CN(c2cc(N3CCN(CC4=C(c5ccc(Cl)cc5)CC(C)(C)CC4)CC3)ccc2C(=O)NS(=O)(=O)c2ccc(NCC3CCOCC3)c([N+](=O)[O-])c2)c2cc3cc[nH]c3nc2O1` [Example 9, (S)-4-(4-((4′-chloro-5,5-dimethyl-3,4,5,6-tetrahydro-[1,1′-biphenyl]-2-yl)methyl)piperazin-1-yl)-2-(3-methyl-2,3-dihydropyrrolo[3′,2′:5,6]pyrido[2,3-b][1,4]oxazin-1(6H)-yl)-N-((3-nitro-4-(((tetrahydro-2H-pyran-4-yl)methyl)amino)phenyl)sulfonyl)benzamide]: in data set [7], the AUC came to 19900 ng·h/mL and the half-life is 4.1 h.
Take `C[C@@H]1CN(c2cc(N3CCN(CC4=C(c5ccc(Cl)cc5)CC(C)(C)CC4)CC3)ccc2C(=O)NS(=O)(=O)c2ccc(NCC3CCOCC3)c([N+](=O)[O-])c2)c2cc3cc[nH]c3nc2O1` [Example 10, (R)-4-(4-((4′-chloro-5,5-dimethyl-3,4,5,6-tetrahydro-[1,1′-biphenyl]-2-yl)methyl)piperazin-1-yl)-2-(3-methyl-2,3-dihydropyrrolo[3′,2′:5,6]pyrido[2,3-b][1,4]oxazin-1(6H)-yl)-N-((3-nitro-4-(((tetrahydro-2H-pyran-4-yl)methyl)amino)phenyl)sulfonyl)benzamide]: in data set [7], the AUC was 35000 ng·h/mL, the bioavailability was found to be 78% and the half-life is 4.1 h.
